Reference: ChEMBL document CHEMBL1201862, “PubChem BioAssay data set” (2004)
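How tested: cells in 96-well plates exposed to compound for 48 hours at five concentrations. Here, GI50 denotes the concentration required for 50% inhibition of growth.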 Activity calls are given as the source filed them. No stated cut-off is given here; in the data, active = GI50 up to about 1.1 µM and inactive = higher. Where a SMILES comes first, the peptide text is derived from it. Non-standard residues stand in square brackets, D forms with d. Residues, ends and D or L forms follow the SMILES beside them. [ ]: non-standard residue; d: D form. The star is where a group is joined. mTyr = N[CH](Cc1cccc(O)c1)C(=O)O; Cbz = O=C(OCc1ccccc1)*; OBn = c1ccc(CO*)cc1

What was measured:
Experiment in all cases: growth of human tumour cells (NCI), 48 h
SF-295 = tested on: SF-295
MDA-MB-231 = tested on: MDA-MB-231
HOP-62 = tested on: HOP-62
786-0 = tested on: 786-0
NCI-H226 = tested on: NCI-H226
UACC-62 = tested on: UACC-62
OVCAR-4 = tested on: OVCAR-4
SK-OV-3 = tested on: SK-OV-3
UO-31 = tested on: UO-31
Hs-578T = tested on: Hs-578T
RPMI-8226 = tested on: RPMI-8226
CCRF-CEM = tested on: CCRF-CEM
SK-MEL-5 = tested on: SK-MEL-5
OVCAR-5 = tested on: OVCAR-5
SNB-75 = tested on: SNB-75
EKVX = tested on: EKVX
ACHN = tested on: ACHN
MCF7 = tested on: MCF7
UACC-257 = tested on: UACC-257
NCI-H522 = tested on: NCI-H522

SMILES	GI50 (SF-295)	GI50 (MDA-MB-231)	GI50 (HOP-62)	GI50 (786-0)	GI50 (NCI-H226)	GI50 (UACC-62)	GI50 (OVCAR-4)	GI50 (SK-OV-3)	GI50 (UO-31)	GI50 (Hs-578T)	GI50 (RPMI-8226)	GI50 (CCRF-CEM)	GI50 (SK-MEL-5)	GI50 (OVCAR-5)	GI50 (SNB-75)	GI50 (EKVX)	GI50 (ACHN)	GI50 (MCF7)	GI50 (UACC-257)	GI50 (NCI-H522)
CCN(CC)CCOCCn1c2c(c3ccccc31)CCCC2	38.5 µM (inactive)	18 µM (inactive)	17.2 µM (inactive)	16.2 µM (inactive)	26.4 µM (inactive)	17 µM (inactive)	26 µM (inactive)	27.4 µM (inactive)	14.5 µM (inactive)	20 µM (inactive)	20.4 µM (inactive)	18.8 µM (inactive)	13.5 µM (inactive)	23.3 µM (inactive)	34.8 µM (inactive)	40.2 µM (inactive)	19.1 µM (inactive)	18.2 µM (inactive)	21.9 µM (inactive)	–
COC(=O)C(Cc1cccc(O)c1)NC(=O)C(CC(=O)OCc1ccccc1)NC(=O)OCc1ccccc1 (configuration not stated) (Cbz-Asp(OBn)-[mTyr]-OMe; configuration not given here)	–	> 100 µM (inactive)	> 100 µM (inactive)	> 100 µM (inactive)	> 100 µM (inactive)	65.5 µM (inactive)	–	–	65.3 µM (inactive)	> 100 µM (inactive)	70.5 µM (inactive)	–	> 100 µM (inactive)	> 100 µM (inactive)	> 100 µM (inactive)	> 100 µM (inactive)	63.5 µM (inactive)	> 100 µM (inactive)	> 100 µM (inactive)	–
O=Cc1ccc2[nH]c(=O)oc2c1	> 100 µM (inactive)	> 100 µM (inactive)	> 100 µM (inactive)	> 100 µM (inactive)	> 100 µM (inactive)	> 100 µM (inactive)	–	> 100 µM (inactive)	23.1 µM (inactive)	> 100 µM (inactive)	> 100 µM (inactive)	42.3 µM (inactive)	–	> 100 µM (inactive)	–	> 100 µM (inactive)	> 100 µM (inactive)	> 100 µM (inactive)	> 100 µM (inactive)	–
CSCC[C@H](NC(=O)[C@@H](N)CC(N)=O)C(=O)N[C@@H](Cc1c[nH]c2ccccc12)C(=O)N[C@@H](CCC(N)=O)C(=O)N[C@@H](CCC(=O)O)C(=O)N[C@H](C(=O)NCC(=O)N[C@@H](CCCCN)C(=O)N[C@H](C)C(=O)O)C(C)C (H-NMWQEVGK[dA]-OH)	> 100 µM (inactive)	> 100 µM (inactive)	> 100 µM (inactive)	> 100 µM (inactive)	> 100 µM (inactive)	> 100 µM (inactive)	> 100 µM (inactive)	> 100 µM (inactive)	–	> 100 µM (inactive)	> 100 µM (inactive)	> 100 µM (inactive)	> 100 µM (inactive)	> 100 µM (inactive)	> 100 µM (inactive)	> 100 µM (inactive)	> 100 µM (inactive)	> 100 µM (inactive)	> 100 µM (inactive)	–
CO/N=C(\C)CCC#Cc1ccccc1C(=O)OC	> 10 µM (inactive)	> 10 µM (inactive)	> 10 µM (inactive)	> 10 µM (inactive)	> 10 µM (inactive)	> 10 µM (inactive)	> 10 µM (inactive)	> 10 µM (inactive)	> 10 µM (inactive)	> 10 µM (inactive)	> 10 µM (inactive)	> 10 µM (inactive)	> 10 µM (inactive)	> 10 µM (inactive)	–	> 10 µM (inactive)	> 10 µM (inactive)	> 10 µM (inactive)	> 10 µM (inactive)	–
CCOC(=O)N1CCC(=C2c3ccc(Cl)cc3CCc3cccnc32)CC1 [LORATADINE]	–	20 µM (inactive)	15.2 µM (inactive)	15.2 µM (inactive)	14.6 µM (inactive)	4.73 µM (inactive)	3.69 µM (inactive)	15.5 µM (inactive)	1.64 µM (inactive)	26.9 µM (inactive)	3.83 µM (inactive)	4.32 µM (inactive)	2.08 µM (inactive)	20.8 µM (inactive)	–	13.9 µM (inactive)	4.15 µM (inactive)	7.4 µM (inactive)	15 µM (inactive)	–
O=Cc1ccc2ccocc1-2	> 100 µM (inactive)	> 100 µM (inactive)	> 100 µM (inactive)	> 100 µM (inactive)	> 100 µM (inactive)	> 100 µM (inactive)	> 100 µM (inactive)	> 100 µM (inactive)	> 100 µM (inactive)	> 100 µM (inactive)	> 100 µM (inactive)	> 100 µM (inactive)	> 100 µM (inactive)	> 100 µM (inactive)	–	> 100 µM (inactive)	> 100 µM (inactive)	> 100 µM (inactive)	> 100 µM (inactive)	> 100 µM (inactive)
O=C(CN1CCCCC1)c1ccc2c(c1)Sc1ccccc1O2	15.7 µM (inactive)	16.7 µM (inactive)	16.1 µM (inactive)	14.8 µM (inactive)	14.2 µM (inactive)	11.5 µM (inactive)	13 µM (inactive)	15.5 µM (inactive)	10.4 µM (inactive)	5.18 µM (inactive)	30.8 µM (inactive)	12.6 µM (inactive)	–	15 µM (inactive)	11.6 µM (inactive)	17.1 µM (inactive)	14.1 µM (inactive)	15.9 µM (inactive)	18.5 µM (inactive)	–
COc1ccccc1NC(=O)C(C#N)=C(SC)SC	> 100 µM (inactive)	> 100 µM (inactive)	> 100 µM (inactive)	> 100 µM (inactive)	> 100 µM (inactive)	> 100 µM (inactive)	> 100 µM (inactive)	> 100 µM (inactive)	> 100 µM (inactive)	> 100 µM (inactive)	> 100 µM (inactive)	89.5 µM (inactive)	> 100 µM (inactive)	> 100 µM (inactive)	–	> 100 µM (inactive)	> 100 µM (inactive)	> 100 µM (inactive)	> 100 µM (inactive)	> 100 µM (inactive)
O=C(CCc1cccc(O)c1)NCCc1cccc(OCc2ccccc2)c1	16.7 µM (inactive)	18.5 µM (inactive)	15.3 µM (inactive)	25.4 µM (inactive)	11.4 µM (inactive)	14.3 µM (inactive)	20.1 µM (inactive)	23.6 µM (inactive)	8.93 µM (inactive)	16.4 µM (inactive)	16.2 µM (inactive)	12.6 µM (inactive)	16 µM (inactive)	24.7 µM (inactive)	–	21.5 µM (inactive)	25.4 µM (inactive)	18.8 µM (inactive)	16.3 µM (inactive)	17.1 µM (inactive)
CC(C)COP(C)(=O)C(N)(C(F)(F)F)C(F)(F)F (configuration not stated)	> 100 µM (inactive)	> 100 µM (inactive)	> 100 µM (inactive)	> 100 µM (inactive)	> 100 µM (inactive)	> 100 µM (inactive)	> 100 µM (inactive)	> 100 µM (inactive)	> 100 µM (inactive)	> 100 µM (inactive)	> 100 µM (inactive)	88.1 µM (inactive)	> 100 µM (inactive)	> 100 µM (inactive)	7.78 µM (inactive)	> 100 µM (inactive)	> 100 µM (inactive)	> 100 µM (inactive)	> 100 µM (inactive)	–
COC(=O)C1=C(C)NC(C)=C([N+](=O)[O-])C1c1cccc(N=O)c1 (configuration not stated)	21.7 µM (inactive)	18.3 µM (inactive)	19.2 µM (inactive)	14.2 µM (inactive)	22 µM (inactive)	15.5 µM (inactive)	11.9 µM (inactive)	21.9 µM (inactive)	12.1 µM (inactive)	15.2 µM (inactive)	4.29 µM (inactive)	4.83 µM (inactive)	15.6 µM (inactive)	16.9 µM (inactive)	–	21.1 µM (inactive)	12.3 µM (inactive)	17.4 µM (inactive)	12.5 µM (inactive)	1.66 µM (inactive)
CC[C@@]1(O)C[C@H](OC2CC(N(C)C)C(OC3CC(O)C(OC4CCC(=O)C(C)O4)C(C)O3)C(C)O2)c2c(cc3c(c2O)C(=O)c2c(O)ccc(O)c2C3=O)[C@H]1C(=O)OC (some centres not stated)	6.81e-05 µM (active)	0.00288 µM (active)	8.75e-05 µM (active)	< 0.01 µM (active)	5.83e-05 µM (active)	0.00341 µM (active)	1.06e-05 µM (active)	0.000404 µM (active)	4.22e-05 µM (active)	0.00366 µM (active)	7.83e-05 µM (active)	8.38e-05 µM (active)	0.000535 µM (active)	0.000365 µM (active)	0.000105 µM (active)	0.00492 µM (active)	5.36e-05 µM (active)	–	0.00202 µM (active)	5.28e-05 µM (active)
COc1ccc(NC(=O)CC(=O)N2N=C(C)C(/N=N/c3ccc(C(=O)O)cc3)C2=O)cc1 (configuration not stated)	> 100 µM (inactive)	> 100 µM (inactive)	> 100 µM (inactive)	> 100 µM (inactive)	–	> 100 µM (inactive)	> 100 µM (inactive)	–	> 100 µM (inactive)	> 100 µM (inactive)	> 10 µM (inactive)	> 100 µM (inactive)	> 100 µM (inactive)	> 100 µM (inactive)	77.3 µM (inactive)	> 100 µM (inactive)	> 100 µM (inactive)	> 100 µM (inactive)	> 100 µM (inactive)	> 100 µM (inactive)
Nc1cc(OCC2CCCCC2)nc(N)n1	> 100 µM (inactive)	> 100 µM (inactive)	> 100 µM (inactive)	> 100 µM (inactive)	> 100 µM (inactive)	> 100 µM (inactive)	> 100 µM (inactive)	> 100 µM (inactive)	> 100 µM (inactive)	> 100 µM (inactive)	> 100 µM (inactive)	> 100 µM (inactive)	37.5 µM (inactive)	> 100 µM (inactive)	61.2 µM (inactive)	57.1 µM (inactive)	> 100 µM (inactive)	–	76.9 µM (inactive)	> 100 µM (inactive)
